Experimental data taken from patent US5614533A, “Substituted pipecolinic acid derivatives as HIV protease inhibitors” (Bio-Mega/Boehringer Ingelheim Research, Inc., priority 1994, dated 1997).
pEC50, pIC50: −log10 of the molar value.

Experiments:
HIV protease = biological target: T1, HIV protease (Human immunodeficiency virus type 1 group M subtype B, UniProt P04585); assay: Recombinant HIV Protease HPLC Assay; type: biochemical; settings: Table IV; 37°, 30 min, pH 5.5
T1 construct: HIV protease was expressed in E. coli; made in house; host or cells: E. coli (plasmid pBRT1 prt+)
Description: The procedure is based on the capacity of the test compound to inhibit enzymatic cleavage by HIV protease of a decapeptide (the substrate) having an amino acid sequence which includes a known HIV protease cleavage site of a HIV polyprotein; see H. G. Krausslich et al., Proc. Natl. Acad. Sci. USA, 86, 807 (1989). Details of this assay together with the results obtained for exemplified compounds of formula 1 are described in the examples hereinafter.
Recombinant HIV Protease HPLC Assay:
Enzyme: HIV protease was expressed in E. coli {construct pBRT1 prt^+, see W. G. Farmerie et al., Science, 236, 305 (1987)}, according to the following protocol:
E. coli cells containing the pBRT1 prt^+ plasmid were used to inoculate a seed culture media composed of Luria-Bertani Broth containing 100 μg/mL of ampicillin. Flasks were incubated at 37° under agitation for 17 h. Production flasks containing sterile M9 broth, supplemented with 100 μg/mL of ampicillin, were inoculated at a level of 1% (v/v) using the seed culture described above. Total volume in each production flask was 500 mL in a 2 L Erlenmeyer flask. Flasks were incubated at 37° under agitation until a cell concentration corresponding to an optical density ([…]) of 0.6 was reached (no dilution). This time span was routinely 3-4 h. Flasks were then supplemented with 5 mM isopropylthiogalactoside (IPTG, Research Organics, Cleveland, Ohio, USA) and incubation was continued until the cell concentration reached an optical density of 0.2 at 16-fold dilution. Flasks were then supplemented with 1 mM phenylmethylsulfonyl fluoride (PMSF) and rapidly chilled to 4°. The bacterial cells were recovered by centrifugation at 4°. The wet pellet was stored at -70°.
All steps below were performed at 4° unless otherwise indicated. Thawed cells were mixed with buffer A {50 mM tris(hydroxymethyl)[…] HCl (Tris-HCl, pH 7.4); 0.6 mM ethylenediaminetetraacetic acid (EDTA); 0.375M NaCl, 0.2% Nonidet P-40® (BDH Chemicals Ltd., Poole, UK); 1 mM PMSF}, at a ratio of one part cells to nine parts buffer A. Diatomaceous earth (Celite 545®, John Manville, Lompoc, Calif. USA) was added at a ratio of two parts to one part of wet cell weight. The resulting slurry was homogenized at high speed (ca. 20,000 rpm) on a Waring® industrial blender for 8×15 sec. pulses. Cell debris/Celite® was collected by centrifugation and the resulting pellet was extracted with 4.5 parts of buffer A to one part wet solids using the homogenization procedure described above. Supernatants from both homogenization steps were combined and soluble protein was precipitated by the addition of solid (NH4)2 SO4 to yield a final concentration of 75% saturation. This mixture was agitated for 60 min and the precipitate was recovered by centrifugation. The resulting pellet was suspended in buffer B {50 mM Tris-HCl, pH 8; 30 mM NaCl; 1 mM DL-dithiothreitol (DTT); 1 mM EDTA; 1 mM PMSF; 10% glycerol}, and dialyzed for 18 h against the same buffer.
An aliquot of the dialyzed extract containing 150 mg of the protein was loaded onto a Sephadex A25® anion exchange column (Pharmacia, Uppsala, Sweden) with bed dimensions of 70 cm length and 2.5 cm diameter. The sample was eluted isocratically with buffer B at a linear flow rate of 10 cm/h. Fractions containing HIV protease activity (see below for assay description) were combined, and soluble protein was precipitated by the addition of saturated aqueous (NH4)2 SO4 to yield a total (NH4)2 SO4 concentration of 85% saturation. Precipitated protein was removed by centrifugation and the resulting pellet was dissolved in buffer C {50 mM 2-(4-morpholino)ethanesulfonic acid (MES), pH 5.5; 150 mM NaCl; 1 mM DTT; 1 mM EDTA; 10% glycerol}. This preparation was dialyzed for 18 h against buffer C, and then frozen at -70°. All crude extracts were purified by chromatography in aliquots containing 150 mg of protein in the same manner as described above. […]

[1] = system: HIV (H9/HTLV-IIIB) in C8166 cells; assay: plaque assay: inhibition of syncytia formation in HIV-infected C8166 cells; type: cell-based; settings: Human immunodeficiency virus 1, IIIB, Table IV, 72 h, 50% inhibition of syncytia formation
Description: Typical of such procedures are those described by S. Harada and N. Yamamoto, Jpn. J. Cancer Res. (Gann), 76, 432 (1985), and S. Harada et al., Science, 229, 563 (1985). An assay based on the latter procedures is described in the examples hereinafter.
The following protocol, used for screening antiviral effects of the compounds of formula 1, is adapted from a plaque assay utilizing HTLV-I transformed cells, previously reported by Harada et al., supra. HTLV-I transformed cells are used because of the rapidity with which HIV will replicate in the cells.
1. The test compound is dissolved in dimethylsulfoxide to a concentration of 5 mg/mL. The resultant solution can be stored at 4° until use.
2. The resultant solution is diluted in RPMI 1640 (Gibco Laboratories, St. Lawrence, Mass., USA) to four times (4×) the final concentration which is to be tested. Once diluted in RPMI 1640, the solution is used in the cell culture assay within 4 h.
3. The 4× solution (50 μL) is added to triplicate wells of a 96 well flat bottomed microtiter plate. RPMI (50 μL) also is added to control wells.
4. C8166 cells (5×10^4) in 50 μL of HEPES-buffered RPMI 1640 (pH=7.2), 10% heat inactivated fetal calf serum (FCS), […] gentamicin (complete media) are added to all wells.
5. Fifty times TCID50 of H9/HTLV-IIIB stock (stored in liquid nitrogen as cell culture supernatant in 50% FCS) in 100 μL of complete media is added to all wells. Infectious titer of virus stocks are as previously determined by end point dilution on C8166 cells. Titer of stocks are stable for 6-12 months when stored at -193°.
6. Microtiter plates are then placed on level shelves of a 37°, 5% CO2 humidified incubator for 72 h.
7. Plates are then removed and centers of syncytia are counted in each well by low power phase contrast light microscopy. […] Control wells should have between 25 and 75 centers of syncytia per well.
8. Percent inhibition of syncytia formation is calculated by the formula: [formula]
The concentration of the test compound which causes a 50% inhibition of syncytia formation, i.e. the EC50, is determined by using the technique of serial dilution of the working solution at step 3 and by using non-linear regression analysis (SAS® program) to graphically plot the observed percent inhibition of syncytia formation against the various concentrations of the test compound.

Structure (SMILES): CC(C)(C)NC(=O)[C@@H]1C[C@H](c2ccccc2)CCN1C[C@@H](O)[C@H](Cc1ccccc1)NC(=O)[C@H](CC(N)=O)NC(=O)OCc1ccccc1 [Table IV, entry 12]
- pIC50 (HIV protease): 8.20
- pEC50 [1]: 6.82

Structure (SMILES): CC(C)[C@H](NC(=O)OCc1ccccc1)C(=O)N[C@@H](Cc1ccccc1)[C@H](O)CN1CC[C@@H](Cc2ccccc2)C[C@H]1C(=O)NC(C)(C)C [Table IV, entry 13]
- pIC50 (HIV protease): 8.39
- pEC50 [1]: 7.40

Structure (SMILES): CC(C)[C@H](NC(=O)OCc1ccccc1)C(=O)N[C@@H](Cc1ccccc1)[C@H](O)CN1CC[C@@H](S(=O)(=O)c2ccccc2)C[C@H]1C(=O)NC(C)(C)C [Table IV, entry 14]
- pIC50 (HIV protease): 8.64
- pEC50 [1]: 7.40

Structure (SMILES): CC(C)(C)NC(=O)[C@@H]1C[C@H](S(=O)(=O)c2ccccc2)CCN1C[C@@H](O)[C@H](Cc1ccccc1)NC(=O)[C@H](CC(N)=O)NC(=O)OCc1ccccc1 [Table IV, entry 15]
- pIC50 (HIV protease): 8.54
- pEC50 [1]: 5.90

Structure (SMILES): CC(C)[C@H](NC(=O)OCc1ccccc1)C(=O)N[C@@H](Cc1ccccc1)[C@H](O)CN1CC[C@@H](Oc2ccccc2)C[C@H]1C(=O)NC(C)(C)C [Table IV, entry 16]
- pIC50 (HIV protease): 8.57
- pEC50 [1]: 6.82

Structure (SMILES): CC(C)(C)NC(=O)[C@@H]1C[C@H](Oc2ccccc2)CCN1C[C@@H](O)[C@H](Cc1ccccc1)NC(=O)[C@H](CC(N)=O)NC(=O)OCc1ccccc1 [Table IV, entry 17]
- pIC50 (HIV protease): 8.60
- pEC50 [1]: 7.38

Structure (SMILES): CC(C)[C@H](NC(=O)OCc1ccccc1)C(=O)N[C@@H](Cc1ccccc1)[C@H](O)CN1CC[C@@H](Oc2ccccn2)C[C@H]1C(=O)NC(C)(C)C [Table IV, entry 18]
- pIC50 (HIV protease): 8.74
- pEC50 [1]: 7.25

Structure (SMILES): CC(C)[C@H](NC(=O)OCc1ccccc1)C(=O)N[C@@H](Cc1ccccc1)[C@H](O)CN1CC[C@@H](C2CCCCC2)C[C@H]1C(=O)NC(C)(C)C [Table IV, entry 19]
- pIC50 (HIV protease): 8.10
- pEC50 [1]: 6.70

Structure (SMILES): CC(C)[C@H](NC(=O)c1ccc2ccccc2n1)C(=O)N[C@@H](Cc1ccccc1)[C@H](O)CN1CC[C@@H](Sc2ccccc2)C[C@H]1C(=O)NC(C)(C)C [Table IV, entry 20, N-tert-butyl-1-{2(R)-hydroxy-4-phenyl-3(S)-{(N-(2-quinolinylcarbonyl)valyl}amino}butyl}-4(R)-(phenylthio)piperidine-2(S)-carboxamide]
- pIC50 (HIV protease): 8.51
- pEC50 [1]: 7.92

Structure (SMILES): CC(C)(C)NC(=O)[C@@H]1C[C@H](Oc2ccccc2)CCN1C[C@@H](O)[C@H](Cc1ccccc1)NC(=O)[C@H](CC(N)=O)NC(=O)c1ccc2ccccc2n1 [Table IV, entry 21, N-tert-butyl-1-{2(R)-hydroxy-4-phenyl-3(S)-{{N-(2-quinolinylcarbonyl)asparaginyl}amino}butyl}-4(R)-phenoxypiperidine-2(S)-carboxamide]
- pIC50 (HIV protease): 8.27
- pEC50 [1]: 7.82

Structure (SMILES): CC(C)(C)NC(=O)[C@@H]1C[C@H](S(=O)(=O)c2ccccc2)CCN1C[C@@H](O)[C@H](Cc1ccccc1)NC(=O)[C@H](CC(N)=O)NC(=O)c1ccc2ccccc2n1 [Table IV, entry 22, N-tert-butyl-1-{2(R)-hydroxy-4-phenyl-3(S)-{{N-(2-quinolinylcarbonyl)asparaginyl}amino}butyl}-4(R)-(phenylsulfonyl)piperidine-2(S)-carboxamide]
- pIC50 (HIV protease): 8.33
- pEC50 [1]: 6.35

Structure (SMILES): CC(C)(C)NC(=O)[C@@H]1C[C@H](Sc2ccccc2)CCN1C[C@@H](O)[C@H](Cc1ccccc1)NC(=O)[C@H](CC(N)=O)NC(=O)c1ccc2ccccc2n1 [Table IV, entry 23, N-tert-butyl-1-{2(R)-hydroxy-4-phenyl-3(S)-{{N-(2-quinolinylcarbonyl)asparaginyl}amino}butyl}-4(R)-(phenylthio)piperidine-2(S)-carboxamide]
- pIC50 (HIV protease): 8.74
- pEC50 [1]: 8.00

Structure (SMILES): CC(C)[C@H](NC(=O)c1ccc2ccccc2c1)C(=O)N[C@@H](Cc1ccccc1)[C@H](O)CN1CC[C@@H](Sc2ccccc2)C[C@H]1C(=O)NC(C)(C)C [Table IV, entry 24, N-tert-butyl-1-{2(R)-hydroxy-4-phenyl-3(S)-{{N-(2-naphthalenylcarbonyl)valyl}amino}butyl}-4(R)-(phenylthio)piperidine-2(S)-carboxamide]
- pIC50 (HIV protease): 8.64
- pEC50 [1]: 7.80

Structure (SMILES): CC(C)(C)NC(=O)[C@@H]1C[C@H](Sc2ccccc2)CCN1C[C@@H](O)[C@H](Cc1ccccc1)NC(=O)[C@H](CC(N)=O)NC(=O)c1ccc2ccccc2c1 [Table IV, entry 25, N-tert-butyl-1-{2(R)-hydroxy-3(S)-{{N-(2-naphthalenylcarbonyl)asparaginyl}amino}-4-phenylbutyl}-4(R)-(phenylthio)piperidine-2(S)-carboxamide]
- pIC50 (HIV protease): 8.72
- pEC50 [1]: 7.48

Structure (SMILES): CC(C)[C@H](NC(=O)OCc1ccccc1)C(=O)N[C@@H](Cc1ccc(F)cc1)[C@H](O)CN1CC[C@@H](Sc2ccccc2)C[C@H]1C(=O)NC(C)(C)C [Table IV, entry 26, N-tert-butyl-1-{3(S)-{{N-(benzyloxycarbonyl)valyl}amino}-2(R)-hydroxy-4-(4-fluorophenyl)butyl}-4(R)-(phenylthio)piperidine-2(S)-carboxamide]
- pIC50 (HIV protease): 8.46
- pEC50 [1]: 7.62

Structure (SMILES): CC[C@H](C)[C@H](NC(=O)OCc1ccccn1)C(=O)N[C@@H](Cc1ccccc1)[C@H](O)CN1CC[C@@H](c2ccccc2)C[C@H]1C(=O)NC(C)(C)C [Table IV, entry 27, N-tert-butyl-1-{2(R)-hydroxy-4-phenyl-3(S)-{{N-{(2-pyridinylmethoxy)carbonyl}isoleucyl}amino}butyl}-4(R)-phenylpiperidine-2(S)-carboxamide]
- pIC50 (HIV protease): 8.31
- pEC50 [1]: 6.30

Structure (SMILES): CC(C)(C)NC(=O)[C@@H]1C[C@H](Sc2ccccn2)CCN1C[C@@H](O)[C@H](Cc1ccccc1)NC(=O)OCc1ccccc1 [Table IV, entry 28]
- pIC50 (HIV protease): 7.80
- pEC50 [1]: 6.30
